The numbers were not newly measured in article PMC13207833, “Coumarin–Amino Acid Hybrids Used as Possible Multifactorial Anti-Inflammatory Agents” (International Journal of Molecular Sciences, 2026), which cites them from elsewhere.

Molecules are shown by their SMILES.

This data set addresses T1, soybean lipoxygenase (SLOX-1) (Glycine max, UniProt P08170).
T1 construct: purchased Merck and Sigma-Aldrich
T1 sequence (P08170 1-839): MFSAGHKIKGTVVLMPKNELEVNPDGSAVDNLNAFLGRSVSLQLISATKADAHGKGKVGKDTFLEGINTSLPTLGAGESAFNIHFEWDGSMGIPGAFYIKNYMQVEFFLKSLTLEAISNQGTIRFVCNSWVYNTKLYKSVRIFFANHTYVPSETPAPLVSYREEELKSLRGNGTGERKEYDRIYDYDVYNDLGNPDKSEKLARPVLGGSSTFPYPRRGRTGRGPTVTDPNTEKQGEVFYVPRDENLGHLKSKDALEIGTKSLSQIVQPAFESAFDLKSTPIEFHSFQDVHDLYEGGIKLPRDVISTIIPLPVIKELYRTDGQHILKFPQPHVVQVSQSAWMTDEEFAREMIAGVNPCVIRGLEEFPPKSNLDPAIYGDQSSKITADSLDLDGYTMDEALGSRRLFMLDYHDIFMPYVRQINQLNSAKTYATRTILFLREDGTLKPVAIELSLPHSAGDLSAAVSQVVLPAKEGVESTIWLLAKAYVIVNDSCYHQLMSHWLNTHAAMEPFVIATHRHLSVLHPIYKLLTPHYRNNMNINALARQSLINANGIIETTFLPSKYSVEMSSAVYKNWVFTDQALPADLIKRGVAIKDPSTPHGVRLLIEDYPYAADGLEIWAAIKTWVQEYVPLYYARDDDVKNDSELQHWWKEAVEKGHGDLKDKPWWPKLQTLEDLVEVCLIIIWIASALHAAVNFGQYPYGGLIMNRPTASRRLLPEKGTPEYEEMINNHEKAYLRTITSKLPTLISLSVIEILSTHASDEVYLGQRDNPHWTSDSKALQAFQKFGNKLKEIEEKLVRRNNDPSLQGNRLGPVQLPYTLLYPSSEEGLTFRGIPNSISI
Further details: method as in PMID 29329232. The following applies: value from earlier paper of the group.

Regarding `O=C(O)COc1ccc2ccc(=O)oc2c1` [Compound 3, 2-((2-oxo-2H-chromen-7-yl)oxy)acetic acid], the IC50 was 100 µM. Take `O=C(O)COc1ccc2oc(=O)ccc2c1` [Compound 2, 2-((2-oxo-2H-chromen-6-yl)oxy)acetic acid]: the IC50 is 100 µM.
